According to patent US10519177B2, “Heterocyclic compounds and uses thereof” (Plexxikon Inc., priority 2013, dated 2019):

How the values were obtained:
[1] = tested on: MV-4-11 cells; assay: Oncology cell growth assay MV-4-11 (CellTiter Glo); type: cell-based; details: Homo sapiens, MV4-11, 72 h; read-out: Cell activity (IC50 μM) MV-4-11 3d-Growth
How it was run: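 MV-4-11 AML cells (MLL-AF4), 3000 per well, exposed to 8-point 1:3 compound titration from 10 μM top concentration (0.2% DMSO) for 72 h. Viability by CellTiter Glo luminescence, normalized to DMSO controls; pIC50 from four-parameter curve fit.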

[2] = tested on: bromodomain; assay: at least one of the bromodomain cell assays of Example 57; type: cell-based; details: at least one of the bromodomain cell assays described in Example 57; read-out: IC50 in at least one of the bromodomain cell assays
[3] = target: BRD4-BD12 (1-477) (Homo sapiens (Human), UniProt O60885); assay: Alphascreen binding assay BRD4-BD12; details: BRD4(1 2) H4; read-out: Biochemical activity (IC50 μM) BRD4(1 2) H4
How it was run: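 First, compound was preincubated 1 h at room temperature with the His-tagged BRD4 protein (BD1 44-164 or tandem BD12 1-477) and acetylated H4 peptide. Next, donor and acceptor beads were added at 7.5 μg/ml final. After 30 min, AlphaScreen emission was recorded.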

SMILES | IC50 [1] [µM] | IC50 [2] [µM] | IC50 [3] [µM]
CNS(=O)(=O)c1ccc(-c2cn(CC3(F)CCCCC3)c3cc(-c4c(C)noc4C)cnc23)cc1 [P-0378, 4-[6-(3,5-dimethylisoxazol-4-yl)-1-[(1-fluorocyclohexyl)methyl]pyrrolo[3,2-b]pyridin-3-yl]-N-methyl-benzenesulfonamide] | < 1 | < 10 | < 1
Cc1noc(C)c1-c1cnc2c(-c3ccc(S(N)(=O)=O)cc3)cn(CC3(F)CCCCC3)c2c1 [P-0379, 4-[6-(3,5-dimethylisoxazol-4-yl)-1-[(1-fluorocyclohexyl)methyl]pyrrolo[3,2-b]pyridin-3-yl]benzenesulfonamide] | < 1 | < 10 | < 1
Cc1noc(C)c1-c1cnc2c(-c3cnn(C)c3)cn(CC3(F)CCC(F)(F)CC3)c2c1 [P-0381, 3,5-dimethyl-4-[3-(1-methylpyrazol-4-yl)-1-[(1,4,4-trifluorocyclohexyl)methyl]pyrrolo[3,2-b]pyridin-6-yl]isoxazole] | < 1 | < 10 | < 1
Cc1noc(C)c1-c1cnc2c(-c3ccc(C(=O)O)cc3)cn(CC3(F)CCC(F)(F)CC3)c2c1 [P-0382, 4-[6-(3,5-dimethylisoxazol-4-yl)-1-[(1,4,4-trifluorocyclohexyl)methyl]pyrrolo[3,2-b]pyridin-3-yl]benzoic acid] | < 1 | < 10 | < 1
Cc1noc(C)c1-c1cnc2c(-c3ccc(CC(=O)O)cc3)cn(CC3(F)CCCCC3)c2c1 [P-0383, 2-[4-[6-(3,5-dimethylisoxazol-4-yl)-1-[(1-fluorocyclohexyl)methyl]pyrrolo[3,2-b]pyridin-3-yl]phenyl]acetic acid] | < 1 | < 10 | < 1
Cc1noc(C)c1-c1cnc2c(-c3cccc(CC(=O)O)c3)cn(CC3(F)CCCCC3)c2c1 [P-0384, 2-[3-[6-(3,5-dimethylisoxazol-4-yl)-1-[(1-fluorocyclohexyl)methyl]pyrrolo[3,2-b]pyridin-3-yl]phenyl]acetic acid] | < 1 | < 10 | < 1
Cc1noc(C)c1-c1cnc2c(-c3ccc(C4(C(=O)O)CC4)cc3)cn(CC3(F)CCCCC3)c2c1 [P-0385, 1-[4-[6-(3,5-dimethylisoxazol-4-yl)-1-[(1-fluorocyclohexyl)methyl]pyrrolo[3,2-b]pyridin-3-yl]phenyl]cyclopropanecarboxylic acid] | < 1 | < 10 | < 1
Cc1noc(C)c1-c1cnc2c(-c3cnn(CC(=O)O)c3)cn(CC3(F)CCC(F)(F)CC3)c2c1 [P-0386, 2-[4-[6-(3,5-dimethylisoxazol-4-yl)-1-[(1,4,4-trifluorocyclohexyl)methyl]pyrrolo[3,2-b]pyridin-3-yl]pyrazol-1-yl]acetic acid] | 10 to 200 | < 10 | < 1
COC(=O)c1ccc(-c2cn(CC3(F)CCC(F)(F)CC3)c3cc(-c4c(C)noc4C)cnc23)cc1F [P-0387, methyl 4-[6-(3,5-dimethylisoxazol-4-yl)-1-[(1,4,4-trifluorocyclohexyl)methyl]pyrrolo[3,2-b]pyridin-3-yl]-2-fluoro-benzoate] | < 1 | < 10 | < 1
Cc1noc(C)c1-c1cnc2c(-c3cccnc3)cn(CC3CCC(F)(F)CC3)c2c1 [P-0388, 4-[1-[(4,4-difluorocyclohexyl)methyl]-3-(3-pyridyl)pyrrolo[3,2-b]pyridin-6-yl]-3,5-dimethyl-isoxazole] | < 1 | < 10 | < 1
Cc1noc(C)c1-c1cnc2c(-c3ccc(C(N)=O)cc3)cn(CC3CCC(F)(F)CC3)c2c1 [P-0389, 4-[1-[(4,4-difluorocyclohexyl)methyl]-6-(3,5-dimethylisoxazol-4-yl)pyrrolo[3,2-b]pyridin-3-yl]benzamide] | < 1 | < 10 | < 1
COc1ccc(-c2cn(CC3CCC(F)(F)CC3)c3cc(-c4c(C)noc4C)cnc23)cn1 [P-0390, 4-[1-[(4,4-difluorocyclohexyl)methyl]-3-(6-methoxy-3-pyridyl)pyrrolo[3,2-b]pyridin-6-yl]-3,5-dimethyl-isoxazole] | < 1 | < 10 | < 1
COc1ncc(-c2cn(CC3CCC(F)(F)CC3)c3cc(-c4c(C)noc4C)cnc23)cn1 [P-0391, 4-[1-[(4,4-difluorocyclohexyl)methyl]-3-(2-methoxypyrimidin-5-yl)pyrrolo[3,2-b]pyridin-6-yl]-3,5-dimethyl-isoxazole] | < 1 | < 10 | < 1
Cc1noc(C)c1-c1cnc2c(-c3cn[nH]c3)cn(CC3CCC(F)(F)CC3)c2c1 [P-0392, 4-[1-[(4,4-difluorocyclohexyl)methyl]-3-(1H-pyrazol-4-yl)pyrrolo[3,2-b]pyridin-6-yl]-3,5-dimethyl-isoxazole] | < 1 | < 10 | < 1
Cc1noc(C)c1-c1cnc2c(-c3cccc(C(=O)O)c3)cn(CC3CCC(F)(F)CC3)c2c1 [P-0393, 3-[1-[(4,4-difluorocyclohexyl)methyl]-6-(3,5-dimethylisoxazol-4-yl)pyrrolo[3,2-b]pyridin-3-yl]benzoic acid] | < 1 | < 10 | < 1
Cc1noc(C)c1-c1cnc2c(-c3cnn(C)c3C)cn(CC3CCC(F)(F)CC3)c2c1 [P-0394, 4-[1-[(4,4-difluorocyclohexyl)methyl]-3-(1,5-dimethylpyrazol-4-yl)pyrrolo[3,2-b]pyridin-6-yl]-3,5-dimethyl-isoxazole] | < 1 | < 10 | < 1
Cc1nn(C)cc1-c1cn(CC2CCC(F)(F)CC2)c2cc(-c3c(C)noc3C)cnc12 [P-0395, 4-[1-[(4,4-difluorocyclohexyl)methyl]-3-(1,3-dimethylpyrazol-4-yl)pyrrolo[3,2-b]pyridin-6-yl]-3,5-dimethyl-isoxazole] | < 1 | < 10 | < 1
Cc1noc(C)c1-c1cnc2c(-c3cnc(N)nc3)cn(CC3CCC(F)(F)CC3)c2c1 [P-0396, 5-[1-[(4,4-difluorocyclohexyl)methyl]-6-(3,5-dimethylisoxazol-4-yl)pyrrolo[3,2-b]pyridin-3-yl]pyrimidin-2-amine] | < 1 | < 10 | < 1
Cc1ccc(-c2cn(CC3CCC(F)(F)CC3)c3cc(-c4c(C)noc4C)cnc23)cn1 [P-0397, 4-[1-[(4,4-difluorocyclohexyl)methyl]-3-(6-methyl-3-pyridyl)pyrrolo[3,2-b]pyridin-6-yl]-3,5-dimethyl-isoxazole] | < 1 | < 10 | < 1
Cc1noc(C)c1-c1cnc2c(-c3cnc(N)cn3)cn(CC3CCC(F)(F)CC3)c2c1 [P-0399, 5-[1-[(4,4-difluorocyclohexyl)methyl]-6-(3,5-dimethylisoxazol-4-yl)pyrrolo[3,2-b]pyridin-3-yl]pyrazin-2-amine] | < 1 | < 10 | < 1
Cc1noc(C)c1-c1cnc2c(-c3cnco3)cn(CC3CCC(F)(F)CC3)c2c1 [P-0400, 4-[1-[(4,4-difluorocyclohexyl)methyl]-3-oxazol-5-yl-pyrrolo[3,2-b]pyridin-6-yl]-3,5-dimethyl-isoxazole] | < 1 | < 10 | < 1
Cc1noc(C)c1-c1cnc2c(-c3ccc(N)nc3)cn(CC3CCC(F)(F)CC3)c2c1 [P-0401, 5-[1-[(4,4-difluorocyclohexyl)methyl]-6-(3,5-dimethylisoxazol-4-yl)pyrrolo[3,2-b]pyridin-3-yl]pyridin-2-amine] | < 1 | < 10 | < 1
Cc1noc(C)c1-c1cnc2c(-c3ccc(O)nc3)cn(CC3CCC(F)(F)CC3)c2c1 [P-0402, 5-[1-[(4,4-difluorocyclohexyl)methyl]-6-(3,5-dimethylisoxazol-4-yl)pyrrolo[3,2-b]pyridin-3-yl]pyridin-2-ol] | < 1 | < 10 | < 1
CNC(=O)c1ccc(-c2cn(CC3CCC(F)(F)CC3)c3cc(-c4c(C)noc4C)cnc23)cc1 [P-0403, 4-[1-[(4,4-difluorocyclohexyl)methyl]-6-(3,5-dimethylisoxazol-4-yl)pyrrolo[3,2-b]pyridin-3-yl]-N-methyl-benzamide] | < 1 | < 10 | < 1
COc1cc(-c2cn(CC3CCC(F)(F)CC3)c3cc(-c4c(C)noc4C)cnc23)ccc1C(=O)O [P-0404, 4-[1-[(4,4-difluorocyclohexyl)methyl]-6-(3,5-dimethylisoxazol-4-yl)pyrrolo[3,2-b]pyridin-3-yl]-2-methoxy-benzoic acid] | < 1 | < 10 | < 1
Cc1noc(C)c1-c1cnc2c(-c3cnc(C4CC4)nc3)cn(CC3CCC(F)(F)CC3)c2c1 [P-0405, 4-[3-(2-cyclopropylpyrimidin-5-yl)-1-[(4,4-difluorocyclohexyl)methyl]pyrrolo[3,2-b]pyridin-6-yl]-3,5-dimethyl-isoxazole] | < 1 | < 10 | < 1
Cc1noc(C)c1-c1cnc2c(-c3ccc(C(=O)O)c(F)c3)cn(CC3CCC(F)(F)CC3)c2c1 [P-0406, 4-[1-[(4,4-difluorocyclohexyl)methyl]-6-(3,5-dimethylisoxazol-4-yl)pyrrolo[3,2-b]pyridin-3-yl]-2-fluoro-benzoic acid] | < 1 | < 10 | < 1
